# According to patent US20110070232A1, “Combination Therapy with an Antitumor Alkaloid” (Pharma Mar, S.A., priority 2008, published 2011):
# Read-outs that look alike come from different tables or passages of the source.
# Key:
# [1] = system: Hs746T tumors; assay type: in vivo, mice; settings: day 33
# Text: Female athymic nude mice (Harlan Sprague Dawley, Madison, Wis.) were utilized for all experiments. Animals were housed in ventilated rack caging with food and water ad libitum. The mice were acclimated for at least 5 days prior to tumor implantation with a tumor cell suspension.
# The tumor model used in these studies was Hs746T cell line, which was obtained from the ATCC (Manassas, Va.).
# Treatments were initiated on DPI 15.
# 5-FU was provided as a solution which was further diluted with water for injection.
# (§1) Tumor size measurements were recorded twice weekly from the treatment initiation until the termination of the study.
# (§2) Mean, standard deviation and standard error of the mean were determined for tumor volume for all animal groups at all assessments. Student's t test was performed on tumor volumes at each measurement day, including at the end of the study, to determine whether there were any statistically significant differences between combination treatment groups and single monotherapy treatment groups.
# [2] = system: MRI-H-254 tumors; assay type: in vivo, mice; settings: for % T/C on day 17 / % T/C on day 20 / % T/C on day 24 / % T/C on day 27 / % T/C on day 32 / % T/C on day 35 / % T/C on day 39 / % T/C on day 47: doxorubicin 6 IP
# Procedure: Female athymic nude mice (Harlan Sprague Dawley, Madison, Wis.) were utilized for all experiments. Animals were housed in ventilated rack caging with food and water ad libitum. The mice were acclimated for at least 5 days prior to tumor implantation with tumor fragments. The Vehicle Control group contained 11 mice, groups 2-6 contained 8 mice/group, and the rest of groups contained 9 mice/group.
# This cell line was grown and implanted to the animals as described in Example 11.
# Tumor measurements were determined as disclosed in Example 4. […] Treatments were initiated on DPI 17.
# PM00104 was provided in the form of vials of lyophilized PM00104 powder which was reconstituted with water for injection.
# as §1, §2
# The definition and criteria for the evaluation of potentiation and the degree of additivity for the combination therapy were the same as those disclose in Example 4.
# [3] = PM00104 0.23 IV, paclitaxel 12.5 IP mg/kg/day (G4, G11, G12)
# [4] = PM00104 0.45 IV, paclitaxel 12.5 IP mg/kg/day (G3, G9, G10)
# [5] = PM00104 0.90 IV, paclitaxel 12.5 IP mg/kg/day (G2, G5, G6, G7, G8)
compound,measurement,setting,value
COc1c(C)cc2c(c1O)[C@@H]1[C@@H]3Cc4c(OC(C)=O)c(C)c5c(c4[C@H](CNC(=O)/C=C/c4cccc(C(F)(F)F)c4)N3[C@@H](O)[C@H](C2)N1C)OCO5 [PM00104],% Inhibition,[1]; PM00104 0.9 and irinotecan 20 mg/kg/day,19.2%
same,% Inhibition,"[1]; mg/kg/day: PM00104 0.90 IV, 5-FU 50 at DPI 15 and 100 at DPI 22 & 29 IP",19.2%
same,% T/C on day 17,[2]; [3],97.5%
same,% T/C on day 20,[2]; [3],113.0%
same,% T/C on day 24,[2]; [3],89.9%
same,% T/C on day 27,[2]; [3],75.9%
same,% T/C on day 32,[2]; [3],72.7%
same,% T/C on day 35,[2]; [3],62.4%
same,% T/C on day 39,[2]; [3],57.6%
same,% T/C on day 47,[2]; [3],66.8%
same,% T/C on day 17,[2]; [4],100.0%
same,% T/C on day 20,[2]; [4],109.2%
same,% T/C on day 24,[2]; [4],91.3%
same,% T/C on day 27,[2]; [4],71.0%
same,% T/C on day 32,[2]; [4],51.8%
same,% T/C on day 35,[2]; [4],38.4%
same,% T/C on day 39,[2]; [4],31.8%
same,% T/C on day 47,[2]; [4],21.5%
same,% T/C on day 17,[2]; [5],98.5%
same,% T/C on day 20,[2]; [5],95.6%
same,% T/C on day 24,[2]; [5],56.9%
same,% T/C on day 27,[2]; [5],46.4%
same,% T/C on day 32,[2]; [5],31.2%
same,% T/C on day 35,[2]; [5],22.6%
same,% T/C on day 39,[2]; [5],14.5%
same,% T/C on day 47,[2]; [5],9.5%
same,% Inhibition,"[2]; day 14, PM00104 0.23, doxorubicin 6, paclitaxel 12.5 mg/kg/day",2.5%
same,% Inhibition,"[2]; day 14, PM00104 0.45, doxorubicin 6, paclitaxel 12.5 mg/kg/day",0.0%
same,% Inhibition,"[2]; day 14, PM00104 0.90, paclitaxel 12.5 mg/kg/day",1.5%
same,% Inhibition,"[2]; day 14, PM00104 0.9 and doxorubicin 6 mg/kg/day",1.5%
same,% Inhibition,"[2]; day 20, PM00104 0.23, doxorubicin 6, paclitaxel 12.5 mg/kg/day",−13.0%
same,% Inhibition,"[2]; day 20, PM00104 0.45, doxorubicin 6, paclitaxel 12.5 mg/kg/day",−9.2%
same,% Inhibition,"[2]; day 20, PM00104 0.90, paclitaxel 12.5 mg/kg/day",4.4%
same,% Inhibition,"[2]; day 20, PM00104 0.9 and doxorubicin 6 mg/kg/day",4.4%
same,% Inhibition,"[2]; day 24, PM00104 0.23, doxorubicin 6, paclitaxel 12.5 mg/kg/day",10.1%
same,% Inhibition,"[2]; day 24, PM00104 0.45, doxorubicin 6, paclitaxel 12.5 mg/kg/day",8.7%
same,% Inhibition,"[2]; day 24, PM00104 0.90, paclitaxel 12.5 mg/kg/day",43.1%
same,% Inhibition,"[2]; day 24, PM00104 0.9 and doxorubicin 6 mg/kg/day",43.1%
same,% Inhibition,"[2]; day 27, PM00104 0.23, doxorubicin 6, paclitaxel 12.5 mg/kg/day",24.1%
same,% Inhibition,"[2]; day 27, PM00104 0.45, doxorubicin 6, paclitaxel 12.5 mg/kg/day",29.0%
same,% Inhibition,"[2]; day 27, PM00104 0.90, paclitaxel 12.5 mg/kg/day",53.6%
same,% Inhibition,"[2]; day 27, PM00104 0.9 and doxorubicin 6 mg/kg/day",53.6%
same,% Inhibition,"[2]; day 32, PM00104 0.23, doxorubicin 6, paclitaxel 12.5 mg/kg/day",27.3%
same,% Inhibition,"[2]; day 32, PM00104 0.45, doxorubicin 6, paclitaxel 12.5 mg/kg/day",48.2%
same,% Inhibition,"[2]; day 32, PM00104 0.90, paclitaxel 12.5 mg/kg/day",68.8%
same,% Inhibition,"[2]; day 32, PM00104 0.9 and doxorubicin 6 mg/kg/day",68.8%
same,% Inhibition,"[2]; day 35, PM00104 0.23, doxorubicin 6, paclitaxel 12.5 mg/kg/day",37.6%
same,% Inhibition,"[2]; day 35, PM00104 0.45, doxorubicin 6, paclitaxel 12.5 mg/kg/day",61.6%
same,% Inhibition,"[2]; day 35, PM00104 0.90, paclitaxel 12.5 mg/kg/day",77.4%
same,% Inhibition,"[2]; day 35, PM00104 0.9 and doxorubicin 6 mg/kg/day",77.4%
same,% Inhibition,"[2]; day 39, PM00104 0.23, doxorubicin 6, paclitaxel 12.5 mg/kg/day",42.4%
same,% Inhibition,"[2]; day 39, PM00104 0.45, doxorubicin 6, paclitaxel 12.5 mg/kg/day",68.2%
same,% Inhibition,"[2]; day 39, PM00104 0.90, paclitaxel 12.5 mg/kg/day",85.5%
same,% Inhibition,"[2]; day 39, PM00104 0.9 and doxorubicin 6 mg/kg/day",85.5%
same,% Inhibition,"[2]; day 47, PM00104 0.23, doxorubicin 6, paclitaxel 12.5 mg/kg/day",33.2%
same,% Inhibition,"[2]; day 47, PM00104 0.45, doxorubicin 6, paclitaxel 12.5 mg/kg/day",78.5%
same,% Inhibition,"[2]; day 47, PM00104 0.90, paclitaxel 12.5 mg/kg/day",90.5%
same,% Inhibition,"[2]; day 47, PM00104 0.9 and doxorubicin 6 mg/kg/day",90.5%
